Legend:
Format in all cases: in vivo
[1] = tested on: Solanum nigrum (SOLNI); test: Post-emergence herbicidal glasshouse test on Solanum nigrum; conditions: post-emergence; 1000 g/h; evaluated after 13 days
Description: (§1) Seeds of a variety of test species are sown in standard soil in pots (Alopecurus myosuroides (ALOMY), Setaria faberi (SETFA), Echinochloa crus-galli (ECHCG), Solanum nigrum (SOLNI), Amaranthus retoflexus (AMARE), Ipomoea hederacea (IPOHE)). After cultivation for one day (pre-emergence) or after 8 days cultivation (post-emergence) under controlled conditions in a glasshouse (at 24/16° C., day/night; 14 hours light; 65% humidity), the plants are sprayed with an aqueous spray solution derived from the formulation of the technical active ingredient in acetone/water (50:50) solution containing 0.5% Tween 20 (polyoxyethelyene sorbitan monolaurate, CAS RN 9005-64-5). Compounds are applied at 1000 g/h. The test plants are then grown in a glasshouse under controlled conditions in a glasshouse (at 24/16° C., day/night; 14 hours light; 65% humidity) and watered twice daily. After 13 days for pre and post-emergence, the test is evaluated for the percentage herbicidal damage caused to the plant. The biological activities are shown in the following table on a five point scale (5=80-100% damage; 4=60-79% damage; 3=40-59% damage; 2=20-39% damage; 1=0-19% damage).

[2] = tested on: Amaranthus retoflexus (AMARE); test: Post-emergence herbicidal glasshouse test on Amaranthus retoflexus; conditions: post-emergence; 1000 g/h; evaluated after 13 days
Description: as §1

[3] = tested on: Solanum nigrum (SOLNI); test: Pre-emergence herbicidal glasshouse test on Solanum nigrum; conditions: pre-emergence; 1000 g/h; evaluated after 13 days
Description: as §1

[4] = tested on: Echinochloa crus-galli (ECHCG); test: Pre-emergence herbicidal glasshouse test on Echinochloa crus-galli; conditions: pre-emergence; 1000 g/h; evaluated after 13 days
Description: as §1

[5] = tested on: Amaranthus retoflexus (AMARE); test: Pre-emergence herbicidal glasshouse test on Amaranthus retoflexus; conditions: pre-emergence; 1000 g/h; evaluated after 13 days
Description: as §1

[6] = tested on: Echinochloa crus-galli (ECHCG); test: Post-emergence herbicidal glasshouse test on Echinochloa crus-galli; conditions: post-emergence; 1000 g/h; evaluated after 13 days
Description: as §1

[7] = tested on: Setaria faberi (SETFA); test: Pre-emergence herbicidal glasshouse test on Setaria faberi; conditions: pre-emergence; 1000 g/h; evaluated after 13 days
Description: as §1

[8] = tested on: Setaria faberi (SETFA); test: Post-emergence herbicidal glasshouse test on Setaria faberi; conditions: post-emergence; 1000 g/h; evaluated after 13 days
Description: as §1

[9] = tested on: Ipomoea hederacea (IPOHE); test: Post-emergence herbicidal glasshouse test on Ipomoea hederacea; conditions: post-emergence; 1000 g/h; evaluated after 13 days
Description: as §1

[10] = tested on: Alopecurus myosuroides (ALOMY); test: Post-emergence herbicidal glasshouse test on Alopecurus myosuroides; conditions: post-emergence; 1000 g/h; evaluated after 13 days
Description: as §1

[11] = tested on: Alopecurus myosuroides (ALOMY); test: Pre-emergence herbicidal glasshouse test on Alopecurus myosuroides; conditions: pre-emergence; 1000 g/h; evaluated after 13 days
Description: as §1

[12] = tested on: Ipomoea hederacea (IPOHE); test: Pre-emergence herbicidal glasshouse test on Ipomoea hederacea; conditions: pre-emergence; 1000 g/h; evaluated after 13 days
Description: as §1

| SMILES | POST Application SOLNI herbicidal damage (five point scale) [1] | POST Application AMARE herbicidal damage (five point scale) [2] | PRE Application SOLNI herbicidal damage (five point scale) [3] | PRE Application ECHCG herbicidal damage (five point scale) [4] | PRE Application AMARE herbicidal damage (five point scale) [5] | POST Application ECHCG herbicidal damage (five point scale) [6] | PRE Application SETFA herbicidal damage (five point scale) [7] | POST Application SETFA herbicidal damage (five point scale) [8] | POST Application IPOHE herbicidal damage (five point scale) [9] | POST Application ALOMY herbicidal damage (five point scale) [10] | PRE Application ALOMY herbicidal damage (five point scale) [11] | PRE Application IPOHE herbicidal damage (five point scale) [12] |
| --- | --- | --- | --- | --- | --- | --- | --- | --- | --- | --- | --- | --- |
| Cc1c(-c2cnn(C3CC3)c(=O)c2O)ccc(S(C)(=O)=O)c1C1=NOCC1 [Compound 1.008, 2-cyclopropyl-5-[3-(4,5-dihydroisoxazol-3-yl)-2-methyl-4-methylsulfonyl-phenyl]-4-hydroxy-pyridazin-3-one] | 5 (5=80-100% damage) | 5 (5=80-100% damage) | 5 (5=80-100% damage) | 5 (5=80-100% damage) | 4 (4=60-79% damage) | 5 (5=80-100% damage) | 4 (4=60-79% damage) | 5 (5=80-100% damage) | 5 (5=80-100% damage) | 5 (5=80-100% damage) | 4 (4=60-79% damage) | 3 (3=40-59% damage) |
| CCn1ncc(-c2c(Cl)ccc(Cl)c2Cl)c(O)c1=O [Compound 1.010] | 4 (4=60-79% damage) | 2 (2=20-39% damage) | 1 (1=0-19% damage) | 1 (1=0-19% damage) | 1 (1=0-19% damage) | 1 (1=0-19% damage) | 1 (1=0-19% damage) | 1 (1=0-19% damage) | 4 (4=60-79% damage) | 1 (1=0-19% damage) | 1 (1=0-19% damage) | 1 (1=0-19% damage) |
| CCn1ncc(-c2c(Cl)cccc2Cl)c(O)c1=O [Compound 1.011] | 4 (4=60-79% damage) | 4 (4=60-79% damage) | 1 (1=0-19% damage) | 1 (1=0-19% damage) | 1 (1=0-19% damage) | 2 (2=20-39% damage) | 1 (1=0-19% damage) | 2 (2=20-39% damage) | 2 (2=20-39% damage) | 2 (2=20-39% damage) | 1 (1=0-19% damage) | 1 (1=0-19% damage) |
| Cc1c(-c2cnn(C(C)C)c(=O)c2O)ccc(S(C)(=O)=O)c1C1=NOCC1 [Compound 1.012] | 5 (5=80-100% damage) | 5 (5=80-100% damage) | 5 (5=80-100% damage) | 5 (5=80-100% damage) | 5 (5=80-100% damage) | 5 (5=80-100% damage) | 4 (4=60-79% damage) | 5 (5=80-100% damage) | 5 (5=80-100% damage) | 5 (5=80-100% damage) | 4 (4=60-79% damage) | 4 (4=60-79% damage) |
| CC(C)n1ncc(-c2ccc(C(F)(F)F)cc2S(C)(=O)=O)c(O)c1=O [Compound 1.013] | 5 (5=80-100% damage) | 5 (5=80-100% damage) | 5 (5=80-100% damage) | 5 (5=80-100% damage) | 5 (5=80-100% damage) | 5 (5=80-100% damage) | 5 (5=80-100% damage) | 5 (5=80-100% damage) | 5 (5=80-100% damage) | 5 (5=80-100% damage) | 5 (5=80-100% damage) | 4 (4=60-79% damage) |
| CC(C)n1ncc(-c2ccc(S(C)(=O)=O)c(C3=NOCC3)c2Cl)c(O)c1=O [Compound 1.014] | 5 (5=80-100% damage) | 5 (5=80-100% damage) | 5 (5=80-100% damage) | 5 (5=80-100% damage) | 5 (5=80-100% damage) | 5 (5=80-100% damage) | 5 (5=80-100% damage) | 5 (5=80-100% damage) | 5 (5=80-100% damage) | 5 (5=80-100% damage) | 5 (5=80-100% damage) | 2 (2=20-39% damage) |
| CC(C)n1ncc(-c2c(Cl)cccc2Cl)c(O)c1=O [Compound 1.016] | 3 (3=40-59% damage) | 5 (5=80-100% damage) | 1 (1=0-19% damage) | 1 (1=0-19% damage) | 1 (1=0-19% damage) | 2 (2=20-39% damage) | 1 (1=0-19% damage) | 3 (3=40-59% damage) | 2 (2=20-39% damage) | 2 (2=20-39% damage) | 1 (1=0-19% damage) | 1 (1=0-19% damage) |
| Cc1c(-c2cnn(C)c(=O)c2O)ccc(S(C)(=O)=O)c1C1=NOCC1 [Compound 1.018] | 5 (5=80-100% damage) | 5 (5=80-100% damage) | 5 (5=80-100% damage) | 5 (5=80-100% damage) | 5 (5=80-100% damage) | 5 (5=80-100% damage) | 4 (4=60-79% damage) | 5 (5=80-100% damage) | 5 (5=80-100% damage) | 4 (4=60-79% damage) | 2 (2=20-39% damage) | 5 (5=80-100% damage) |

Source: patent US9693556B2, “Herbicidal pyridazinone derivatives” (SYNGENTA LIMITED, priority 2011, dated 2017)
